Patent US11052092B2, “N-{[2-(piperidin-1-yl)phenyl](phenyl)methyl}-2-(3-oxo-3,4-dihydro-2H-1,4-benzoxazin-7-yl)acetamide derivatives and related compounds as ROR-gamma modulators for treating autoimmune diseases” (Genfit, priority 2017, dated 2021)
pIC50: −log10 of the molar value.

Target: T1, human RORγt (Homo sapiens, UniProt P51449)
T1 construct: the full-length cDNA of human RORγt; expressed in transfected cells; host or cells: COS-7 (monkey kidney)
T1 sequence (P51449 1-497 isoform P51449-2): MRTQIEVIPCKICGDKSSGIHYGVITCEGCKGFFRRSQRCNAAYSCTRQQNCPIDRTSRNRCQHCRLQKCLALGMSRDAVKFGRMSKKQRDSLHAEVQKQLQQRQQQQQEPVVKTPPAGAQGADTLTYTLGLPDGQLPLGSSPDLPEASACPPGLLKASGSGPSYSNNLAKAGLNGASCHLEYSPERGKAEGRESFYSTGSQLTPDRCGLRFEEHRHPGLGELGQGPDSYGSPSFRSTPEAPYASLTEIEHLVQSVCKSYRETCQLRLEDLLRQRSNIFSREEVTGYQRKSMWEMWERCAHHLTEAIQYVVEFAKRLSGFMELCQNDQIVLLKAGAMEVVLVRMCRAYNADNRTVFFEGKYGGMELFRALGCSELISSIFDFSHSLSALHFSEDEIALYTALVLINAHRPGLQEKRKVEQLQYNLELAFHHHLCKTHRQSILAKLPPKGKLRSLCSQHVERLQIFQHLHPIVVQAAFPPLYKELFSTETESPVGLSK
Assay: RORE Luciferase/RORγt transactivation assay
Format: cell-based
Settings: COS-7 cells transfected with human IL-17 promoter luciferase reporter and RORγt plasmid; 20 h with compound; read-out: IC50, RORγt activity inhibition
Description: It is well known that RORγ binds to a conserved non-coding sequence (CNS) enhancer element in the IL-17 promoter.
Culture medium was changed every 2 days.
The 4.3 Kb human IL-17 promoter containing the RORγ-specific CNS enhancer element was PCR amplified from human genomic DNA and cloned into a pGL3-TKLuc2Cp reporter plasmid.
The luciferase reporter plasmid and the RORγt overexpression plasmid were transfected into COS-7 cell line using 4 μLJetPEI™/μg of DNA. Briefly, 150 ng of DNA (ration ½ between RORE-Tk Luc2Cp and cDNA RORγt or the empty vector for the negative control) was served to transfect adherent COS-7 cells in a […] culture flask, in complete medium (see cos-7 cell line culture).
Cells were then detached (using trypsin) and washed by centrifugation at 300 g for 10 minutes. Cell pellet was resuspended in serum free/phenol red free DMEM and seeded in 384 well plates at a density of 10000 cells/well and then incubated for 4 h at 37° C.
Compounds were dissolved in 100% DMSO to obtain 10 mM stock solutions. For each compound, test concentrations were diluted in serum free/phenol red free DMEM using the Genesis Freedom 200™ (TECAN) and added to the cells to obtain a 0.3% DMSO final concentration (in a final volume of 40 μL per well).
The luciferase activity was then measured with 40 μL/well steady-Glo Luciferase assay system (Promega, Madison, Wis.) and after incubation at room temperature for 30 minutes. The luminescence was estimated using the Ultra384 reader (TECAN). Data were collected and analyzed using GraphPad Prism software (GraphPad Software V5.02, San Diego Calif. USA). IC50 in μM and Emax in % were reported for each compound.

Row | Structure (SMILES) | pIC50
1 | CC(C)CC(NC(=O)Cc1ccc2c(c1)OCC(=O)N2)c1ccccc1N1CCCCC1 (centres unmarked) [Cpd. 6, N-{3-methyl-1-[2-(piperidin-1-yl)phenyl]butyl}-2-(3-oxo-3,4-dihydro-2H-1,4-benzoxazin-7-yl)acetamide] | 5.00 to 6.00
2 | O=C1COc2ccc(CC(=O)NC(c3ccccc3)c3ccccc3N3CCCCC3)cc2N1 (centres unmarked) [Cpd. 13, 2-(3-oxo-3,4-dihydro-2H-1,4-benzoxazin-6-yl)-N-{phenyl[2-(piperidin-1-yl)phenyl]methyl}acetamide] | 5.00 to 6.00
3 | Cc1ccc(C(NC(=O)Cc2ccc3c(c2)C(O)C(=O)N3)c2ccc(C)o2)c(N2CCCCC2)c1 (centres unmarked) [Cpd. 46, 2-(3-hydroxy-2-oxo-2,3-dihydro-1H-indol-5-yl)-N-{[4-methyl-2-(piperidin-1-yl)phenyl](5-methylfuran-2-yl)methyl}acetamide] | 6.00 to 7.00
4 | CC(C)=C1C(=O)Nc2ccc(CC(=O)NC(c3ccc(C)o3)c3ccc(C)cc3N3CCCCC3)cc21 (centres unmarked) [Cpd. 55, N-{[4-methyl-2-(piperidin-1-yl)phenyl](5-methylfuran-2-yl)methyl}-2-[2-oxo-3-(propan-2-ylidene)-2,3-dihydro-1H-indol-5-yl]acetamide] | 6.00 to 7.00
5 | Cc1ccc(C(NC(=O)C2(c3ccc4c(c3)CN(S(C)(=O)=O)C4)CC2)c2ccc(C)o2)c(C)c1 (centres unmarked) [Cpd. 65, N-[(2,4-dimethylphenyl)(5-methylfuran-2-yl)methyl]-1-(2-methanesulfonyl-2,3-dihydro-1H-isoindol-5-yl)cyclopropane-1-carboxamide] | 7.00 to 8.00
6 | Cc1ccc(C(NC(=O)Cc2ccc3c(c2)C(=O)CC3)c2ccc(C)o2)c(N2CCCCC2)c1 (centres unmarked) [Cpd. 67, N-{[4-methyl-2-(piperidin-1-yl)phenyl](5-methylfuran-2-yl)methyl}-2-(3-oxo-2,3-dihydro-1H-inden-5-yl)acetamide] | 6.00 to 7.00
7 | Cc1ccc(C(NC(=O)C2(c3ccc4c(ccn4CCO)c3)CC2)c2ccc(C)o2)c(C)c1 (centres unmarked) [Cpd. 69, N-[(2,4-dimethylphenyl)(5-methylfuran-2-yl)methyl]-1-[1-(2-hydroxyethyl)-1H-indol-5-yl]cyclopropane-1-carboxamide] | 7.00 to 8.00
8 | Cc1ccc(C(NC(=O)C2(c3ccc4c(c3)CCN4C(=O)C3CC3)CC2)c2ccc(C)o2)c(C)c1 (centres unmarked) [Cpd. 95, 1-(1-cyclopropanecarbonyl-2,3-dihydro-1H-indol-5-yl)-N-[(2,4-dimethylphenyl)(5-methylfuran-2-yl)methyl]cyclopropane-1-carboxamide] | 7.00 to 8.00
9 | Cc1ccc(C(NC(=O)Cc2ccc3c(ccn3CCC(=O)OC(C)(C)C)c2)c2ccc(C)o2)c(N2CCCCC2)c1 (centres unmarked) [Cpd. 96, tert-butyl 3-{5-[({[4-methyl-2-(piperidin-1-yl)phenyl](5-methylfuran-2-yl)methyl}carbamoyl)methyl]-1H-indol-1-yl}propanoate] | 6.00 to 7.00
10 | Cc1ccc(C(NC(=O)Cc2ccc3c(ccn3CC3CCOCC3)c2)c2ccc(C)o2)c(N2CCCCC2)c1 (centres unmarked) [Cpd. 113, N-{[4-methyl-2-(piperidin-1-yl)phenyl](5-methylfuran-2-yl)methyl}-2-[1-(oxan-4-ylmethyl)-1H-indol-5-yl]acetamide] | 7.00 to 8.00
11 | Cc1ccc(C(NC(=O)C2(c3ccc4c(c3)OCS(=O)(=O)N4)CC2)c2ccc(C)o2)c(Br)c1 (centres unmarked) [Cpd. 131, N-[(2-bromo-4-methylphenyl)(5-methylfuran-2-yl)methyl]-1-(2,2-dioxo-1,3-dihydro-4,2,1-benzoxathiazin-6-yl)cyclopropane-1-carboxamide] | 7.00 to 8.00

Further lines, results first:

Row | pIC50 | Structure (SMILES)
12 | 5.00 to 6.00 | O=C1Cc2cc(CC(=O)NC(c3ccccc3)c3ccccc3N3CCOCC3)ccc2N1 (centres unmarked) [Cpd. 17, N-{[2-(morpholin-4-yl)phenyl](phenyl)methyl}-2-(2-oxo-2,3-dihydro-1H-indol-5-yl)acetamide]
13 | 5.00 to 6.00 | Cc1ccc(C(NC(=O)Cc2ccc3c(c2)CC(=O)N3)c2ccc(C)o2)c(C)c1 (centres unmarked) [Cpd. 29, N-[(2,4-dimethylphenyl)(5-methylfuran-2-yl)methyl]-2-(2-oxo-2,3-dihydro-1H-indol-5-yl)acetamide]
14 | 6.00 to 7.00 | Cc1ccc(C(NC(=O)Cc2ccc3c(c2)CCC3=O)c2ccc(C)o2)c(N2CCCCC2)c1 (centres unmarked) [Cpd. 51, N-{[4-methyl-2-(piperidin-1-yl)phenyl](5-methylfuran-2-yl)methyl}-2-(1-oxo-2,3-dihydro-1H-inden-5-yl)acetamide]
15 | 7.00 to 8.00 | Cc1ccc(C(NC(=O)C2(c3ccc4c(c3)CN(S(C)(=O)=O)C4)CC2)c2ccc(Cl)o2)c(C)c1 (centres unmarked) [Cpd. 56, N-[(5-chlorofuran-2-yl)(2,4-dimethylphenyl)methyl]-1-(2-methanesulfonyl-2,3-dihydro-1H-isoindol-5-yl)cyclopropane-1-carboxamide]
16 | 7.00 to 8.00 | Cc1ccc(C(NC(=O)C2(c3ccc4[nH]cc(CCO)c4c3)CC2)c2ccc(C)o2)c(N2CCCCC2)c1 (centres unmarked) [Cpd. 66, 1-[3-(2-hydroxyethyl)-1H-indol-5-yl]-N-{[4-methyl-2-(piperidin-1-yl)phenyl](5-methylfuran-2-yl)methyl}cyclopropane-1-carboxamide]
17 | 7.00 to 8.00 | Cc1ccc(C(NC(=O)C2(c3ccc4c(c3)CS(=O)(=O)N4C)CC2)c2ccc(C)o2)c(C)c1 (centres unmarked) [Cpd. 70, N-[(2,4-dimethylphenyl)(5-methylfuran-2-yl)methyl]-1-(1-methyl-2,2-dioxo-1,3-dihydro-2,1-benzothiazol-5-yl)cyclopropane-1-carboxamide]
18 | 7.00 to 8.00 | Cc1ccc(C(NC(=O)Cc2ccc3c(c2)C(O)CC3)c2ccc(C)o2)c(N2CCCCC2)c1 (centres unmarked) [Cpd. 85, 2-(3-hydroxy-2,3-dihydro-1H-inden-5-yl)-N-{[4-methyl-2-(piperidin-1-yl)phenyl](5-methylfuran-2-yl)methyl}acetamide]
19 | 6.00 to 7.00 | COc1ccc(C(NC(=O)Cc2ccc3c(ccn3CCC(=O)OC(C)(C)C)c2)c2ccc(C)o2)c(N2CCCCCC2)c1 (centres unmarked) [Cpd. 110, tert-butyl 3-{5-[({[2-(azepan-1-yl)-4-methoxyphenyl](5-methylfuran-2-yl)methyl}carbamoyl)methyl]-1H-indol-1-yl}propanoate]
20 | > 8.00 | Cc1ccc(C(NC(=O)Cc2ccc3c(c2)CCN3C(=O)C2CC2)c2ccc(C)o2)c(N2CCCCC2)c1 (centres unmarked) [Cpd. 123, 2-(1-cyclopropanecarbonyl-2,3-dihydro-1H-indol-5-yl)-N-{[4-methyl-2-(piperidin-1-yl)phenyl](5-methylfuran-2-yl)methyl}acetamide]
21 | 7.00 to 8.00 | CCN1c2ccc(C3(C(=O)NC(c4ccc(C)o4)c4ccc(C)cc4C)CC3)cc2CS1(=O)=O (centres unmarked) [Cpd. 132, N-[(2,4-dimethylphenyl)(5-methylfuran-2-yl)methyl]-1-(1-ethyl-2,2-dioxo-1,3-dihydro-2,1-benzothiazol-5-yl)cyclopropane-1-carboxamide]
22 | 7.00 to 8.00 | Cc1ccc(C(NC(=O)C2(c3ccc4c(c3)CS(=O)(=O)N4C)CC2)c2ccc(C)o2)c(N(C)C)c1 (centres unmarked) [Cpd. 133, N-{[2-(dimethylamino)-4-methylphenyl](5-methylfuran-2-yl)methyl}-1-(1-methyl-2,2-dioxo-1,3-dihydro-2,1-benzothiazol-5-yl)cyclopropane-1-carboxamide]
23 | > 8.00 | Cc1ccc(C(NC(=O)C2(c3ccc4c(c3)OCC(=O)N4)CC2)c2ccc(Cl)o2)c(C)c1 (centres unmarked) [Cpd. 134, N-[(5-chlorofuran-2-yl)(2,4-dimethylphenyl)methyl]-1-(3-oxo-3,4-dihydro-2H-1,4-benzoxazin-7-yl)cyclopropane-1-carboxamide]
